# Assay results from ChEMBL document CHEMBL1137228, “Benzoxepin-derived estrogen receptor modulators: a novel molecular scaffold for the estrogen receptor” (J Med Chem, 2004).
# Biological target: T1, Estrogen receptor (Homo sapiens, UniProt Q92731+P03372)
# Experiment: Inhibition of estrogen receptor positive human breast carcinoma (MCF-7) cell proliferation
# Assay type: functional
row,Structure (SMILES),IC50 [µM]
1,COc1ccc(C2=C(c3ccc(OCCN(C)C)cc3)c3ccccc3OCC2)cc1,11.1
2,CCN(CC)CCOc1ccc(C2=C(c3ccccc3)CCOc3ccccc32)cc1,14.2
3,c1ccc(C2=C(c3ccc(OCCN4CCCCC4)cc3)c3ccccc3OCC2)cc1,10.6
4,c1ccc(C2=C(c3ccc(OCCN4CCCC4)cc3)c3ccccc3OCC2)cc1,6.1
5,COc1ccccc1C1=C(c2ccc(OCCN(C)C)cc2)c2ccccc2OCC1,11.7
6,CN(C)CCOc1ccc(C2=C(c3ccc(C#N)cc3)CCOc3ccccc32)cc1,74.3
7,c1ccc(C2=C(c3ccc(OCCN4CCOCC4)cc3)c3ccccc3OCC2)cc1,7.6

# The remaining lines, values ahead:
row,IC50 [µM],Structure (SMILES)
1,18.3,CN(C)CCOc1ccc(C2=C(c3ccc(Cl)cc3)CCOc3ccccc32)cc1
2,33.6,Cc1cccc(C2=C(c3ccc(OCCN(C)C)cc3)c3ccccc3OCC2)c1
3,56.6,COc1cccc(C2=C(c3ccc(OCCN(C)C)cc3)c3ccccc3OCC2)c1
4,16.2,CN(C)CCOc1ccc(C2=C(c3ccccc3)CCOc3ccccc32)cc1
5,64.6,CN(C)CCOc1ccc(C2=C(c3cccc([N+](=O)[O-])c3)CCOc3ccccc32)cc1
6,15.7,Cc1ccc(C2=C(c3ccc(OCCN(C)C)cc3)c3ccccc3OCC2)cc1

# Biological target: T1, Estrogen receptor
# Experiment: Binding affinity for estrogen receptor of human breast carcinoma (MCF-7) cell line; 828 +/- 106 […]
row,Ki [µM],Structure (SMILES)
1,0.828,Cc1ccc(C2=C(c3ccc(OCCN(C)C)cc3)c3ccccc3OCC2)cc1

# Biological target: T1, Estrogen receptor
# Experiment: Binding affinity for estrogen receptor of human breast carcinoma (MCF-7) cell line
row,Ki [µM],Structure (SMILES)
1,3.2,CN(C)CCOc1ccc(C2=C(c3ccccc3)CCOc3ccccc32)cc1
